From paper PMC7614775 (Nature chemical biology, 2022)
pIC50: −log10 of the molar value.

Tests used:
[1] = test system: IFNα-dependent STAT1 phosphorylation; assay: Phospho-STAT western blot in mouse splenocytes; format: cell-based; conditions: 0.01–0.1 µM
[2] = test system: αCD3/αCD28-stimulated primary human T cells (IFNγ, IL-2 secretion); assay: Cytokine secretion of activated T cells (ELISA); format: cell-based; conditions: αCD3/αCD28 co-stimulation, 24 h
[3] = target: recombinant purified JAK1 (aa 438 – 1154) (Homo sapiens, UniProt P23458); assay: In vitro kinase (peptide substrate, ADP-Glo) assay; format: biochemical
recombinant purified JAK1 (aa 438 – 1154), sequence (P23458 438-1154): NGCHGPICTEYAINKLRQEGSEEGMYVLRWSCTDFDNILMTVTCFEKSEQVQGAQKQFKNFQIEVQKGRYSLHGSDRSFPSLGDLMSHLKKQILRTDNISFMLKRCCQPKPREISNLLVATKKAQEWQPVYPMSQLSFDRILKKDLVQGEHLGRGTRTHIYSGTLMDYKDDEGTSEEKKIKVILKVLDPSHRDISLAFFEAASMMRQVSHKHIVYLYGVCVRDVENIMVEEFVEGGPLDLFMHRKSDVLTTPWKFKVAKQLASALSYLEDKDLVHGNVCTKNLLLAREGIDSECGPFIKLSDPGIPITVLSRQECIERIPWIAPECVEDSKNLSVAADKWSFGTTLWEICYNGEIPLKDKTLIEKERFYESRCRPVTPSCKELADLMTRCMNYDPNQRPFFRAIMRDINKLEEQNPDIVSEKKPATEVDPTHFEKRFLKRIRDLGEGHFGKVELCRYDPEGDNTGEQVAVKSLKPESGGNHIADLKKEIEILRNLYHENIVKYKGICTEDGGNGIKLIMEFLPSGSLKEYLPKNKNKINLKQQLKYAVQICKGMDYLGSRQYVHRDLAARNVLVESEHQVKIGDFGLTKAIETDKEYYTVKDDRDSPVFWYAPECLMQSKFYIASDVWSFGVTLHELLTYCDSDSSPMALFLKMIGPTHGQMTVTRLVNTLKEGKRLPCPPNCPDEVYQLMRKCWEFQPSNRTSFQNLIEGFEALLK

C816 of mouse JAK1 = C816 of mouse JAK1 (Mus musculus, UniProt P52332); assay: Cysteine MS-ABPP in mouse splenocyte lysates; format: binding; conditions: 0.01 µM, 1 h
C816 of mouse JAK1, sequence (P52332 whole entry): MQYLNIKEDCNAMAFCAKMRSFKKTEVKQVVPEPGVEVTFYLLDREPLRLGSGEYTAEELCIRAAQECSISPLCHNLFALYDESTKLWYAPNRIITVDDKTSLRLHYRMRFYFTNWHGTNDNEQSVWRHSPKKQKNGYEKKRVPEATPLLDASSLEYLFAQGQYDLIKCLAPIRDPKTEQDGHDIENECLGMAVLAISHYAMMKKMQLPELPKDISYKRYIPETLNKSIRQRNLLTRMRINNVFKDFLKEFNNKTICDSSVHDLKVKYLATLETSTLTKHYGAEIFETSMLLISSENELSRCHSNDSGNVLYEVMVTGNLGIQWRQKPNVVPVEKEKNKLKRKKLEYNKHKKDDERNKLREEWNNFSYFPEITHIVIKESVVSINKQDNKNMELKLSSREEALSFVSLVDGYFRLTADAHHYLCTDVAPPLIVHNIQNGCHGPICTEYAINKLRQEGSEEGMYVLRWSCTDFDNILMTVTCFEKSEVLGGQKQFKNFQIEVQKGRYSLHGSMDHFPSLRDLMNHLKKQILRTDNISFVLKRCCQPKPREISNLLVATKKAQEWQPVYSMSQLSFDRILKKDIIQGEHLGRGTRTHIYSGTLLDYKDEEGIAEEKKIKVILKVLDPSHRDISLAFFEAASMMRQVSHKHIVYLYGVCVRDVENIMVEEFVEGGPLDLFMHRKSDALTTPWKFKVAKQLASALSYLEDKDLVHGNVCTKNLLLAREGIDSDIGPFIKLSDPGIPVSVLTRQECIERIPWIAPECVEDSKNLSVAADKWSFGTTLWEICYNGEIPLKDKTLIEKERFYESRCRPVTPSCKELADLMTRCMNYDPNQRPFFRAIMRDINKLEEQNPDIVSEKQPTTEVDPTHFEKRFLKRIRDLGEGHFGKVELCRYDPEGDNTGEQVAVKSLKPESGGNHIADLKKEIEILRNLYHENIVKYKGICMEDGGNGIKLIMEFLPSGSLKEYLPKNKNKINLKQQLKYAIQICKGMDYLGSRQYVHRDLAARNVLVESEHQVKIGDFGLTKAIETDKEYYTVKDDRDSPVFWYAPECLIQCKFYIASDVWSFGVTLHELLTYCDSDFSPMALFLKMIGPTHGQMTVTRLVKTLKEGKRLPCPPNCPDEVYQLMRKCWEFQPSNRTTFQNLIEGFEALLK

[4] = test system: αCD3/αCD28-stimulated primary human T cells (CD25, CD69); assay: T-cell activation analysis by flow cytometry; format: cell-based; conditions: 24 h
TYK2_C838 = TYK2_C838 (Homo sapiens, UniProt P29597); assay: Untargeted cysteine MS-ABPP, human PBMC lysates treated in vitro; format: binding; conditions: PBMC lysate in vitro, 1 h
TYK2_C838, sequence (P29597 whole entry): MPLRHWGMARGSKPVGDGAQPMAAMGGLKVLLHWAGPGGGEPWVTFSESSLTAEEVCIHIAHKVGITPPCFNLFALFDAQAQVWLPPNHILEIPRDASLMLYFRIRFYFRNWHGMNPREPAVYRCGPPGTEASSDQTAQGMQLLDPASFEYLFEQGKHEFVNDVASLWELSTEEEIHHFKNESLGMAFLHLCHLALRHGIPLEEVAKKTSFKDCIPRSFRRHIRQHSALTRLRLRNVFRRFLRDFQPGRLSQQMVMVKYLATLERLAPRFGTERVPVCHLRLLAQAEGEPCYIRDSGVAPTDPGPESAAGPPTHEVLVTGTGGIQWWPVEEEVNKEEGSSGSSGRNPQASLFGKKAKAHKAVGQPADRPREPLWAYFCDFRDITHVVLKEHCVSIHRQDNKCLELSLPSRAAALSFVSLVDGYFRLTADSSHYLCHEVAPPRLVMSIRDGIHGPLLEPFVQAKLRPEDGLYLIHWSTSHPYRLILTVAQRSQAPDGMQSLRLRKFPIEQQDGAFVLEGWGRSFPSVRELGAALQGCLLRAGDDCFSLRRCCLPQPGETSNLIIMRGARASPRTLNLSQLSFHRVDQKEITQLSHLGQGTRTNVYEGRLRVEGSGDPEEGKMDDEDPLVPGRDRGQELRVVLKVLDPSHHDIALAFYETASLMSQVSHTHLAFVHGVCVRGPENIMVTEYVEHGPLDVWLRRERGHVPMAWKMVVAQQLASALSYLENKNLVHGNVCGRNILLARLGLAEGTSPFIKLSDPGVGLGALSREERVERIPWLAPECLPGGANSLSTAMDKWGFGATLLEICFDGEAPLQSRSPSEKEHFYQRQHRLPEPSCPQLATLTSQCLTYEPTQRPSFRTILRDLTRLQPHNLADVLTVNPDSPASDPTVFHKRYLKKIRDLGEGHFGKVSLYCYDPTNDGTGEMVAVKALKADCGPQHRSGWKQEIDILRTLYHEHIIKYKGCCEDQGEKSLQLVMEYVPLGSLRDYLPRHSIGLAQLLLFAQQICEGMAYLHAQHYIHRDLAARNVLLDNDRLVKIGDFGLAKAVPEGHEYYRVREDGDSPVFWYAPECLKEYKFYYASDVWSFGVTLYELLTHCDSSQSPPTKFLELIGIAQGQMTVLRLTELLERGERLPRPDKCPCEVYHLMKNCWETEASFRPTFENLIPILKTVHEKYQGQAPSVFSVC

[5] = test system: IFNα-stimulated STAT1 phosphorylation; assay: Phospho-STAT western blot in 22Rv1 cells expressing JAK1 variants; format: cell-based, human
[6] = test system: IL-6-stimulated STAT3 phosphorylation; assay: Phospho-STAT western blot in human PBMCs; format: cell-based; conditions: 0.1 µM
SLC66A3_C135 = target: T1, SLC66A3_C135 (Homo sapiens, UniProt Q8N755); assay: Untargeted cysteine MS-ABPP, human PBMCs treated in situ; format: binding
T1 sequence (Q8N755 20-202): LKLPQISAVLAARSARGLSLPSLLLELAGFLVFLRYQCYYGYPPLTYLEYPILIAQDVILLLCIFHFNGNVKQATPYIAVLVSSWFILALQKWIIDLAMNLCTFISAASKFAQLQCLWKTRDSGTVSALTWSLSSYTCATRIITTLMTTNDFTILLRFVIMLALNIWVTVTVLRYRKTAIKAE

[7] = target: recombinant TYK2 (WT, C838A) (Homo sapiens, UniProt P29597); assay: Gel-based ABPP in 22Rv1 cells; format: binding; conditions: pre-treatment 0.01–1 μM, 2 h, in situ
recombinant TYK2 (WT, C838A), sequence (P29597 whole entry C838A): as the sequence (P29597 whole entry) above, with C838A counted along it

[8] = target: JAK1 trans-phosphorylation (Homo sapiens, UniProt P23458); assay: Trans-phosphorylation assay in 22Rv1 cells; format: cell-based; conditions: cells expressing active WT-JAK1-FLAG; 2 µM, 2 h
JAK1 trans-phosphorylation, sequence (P23458 whole entry): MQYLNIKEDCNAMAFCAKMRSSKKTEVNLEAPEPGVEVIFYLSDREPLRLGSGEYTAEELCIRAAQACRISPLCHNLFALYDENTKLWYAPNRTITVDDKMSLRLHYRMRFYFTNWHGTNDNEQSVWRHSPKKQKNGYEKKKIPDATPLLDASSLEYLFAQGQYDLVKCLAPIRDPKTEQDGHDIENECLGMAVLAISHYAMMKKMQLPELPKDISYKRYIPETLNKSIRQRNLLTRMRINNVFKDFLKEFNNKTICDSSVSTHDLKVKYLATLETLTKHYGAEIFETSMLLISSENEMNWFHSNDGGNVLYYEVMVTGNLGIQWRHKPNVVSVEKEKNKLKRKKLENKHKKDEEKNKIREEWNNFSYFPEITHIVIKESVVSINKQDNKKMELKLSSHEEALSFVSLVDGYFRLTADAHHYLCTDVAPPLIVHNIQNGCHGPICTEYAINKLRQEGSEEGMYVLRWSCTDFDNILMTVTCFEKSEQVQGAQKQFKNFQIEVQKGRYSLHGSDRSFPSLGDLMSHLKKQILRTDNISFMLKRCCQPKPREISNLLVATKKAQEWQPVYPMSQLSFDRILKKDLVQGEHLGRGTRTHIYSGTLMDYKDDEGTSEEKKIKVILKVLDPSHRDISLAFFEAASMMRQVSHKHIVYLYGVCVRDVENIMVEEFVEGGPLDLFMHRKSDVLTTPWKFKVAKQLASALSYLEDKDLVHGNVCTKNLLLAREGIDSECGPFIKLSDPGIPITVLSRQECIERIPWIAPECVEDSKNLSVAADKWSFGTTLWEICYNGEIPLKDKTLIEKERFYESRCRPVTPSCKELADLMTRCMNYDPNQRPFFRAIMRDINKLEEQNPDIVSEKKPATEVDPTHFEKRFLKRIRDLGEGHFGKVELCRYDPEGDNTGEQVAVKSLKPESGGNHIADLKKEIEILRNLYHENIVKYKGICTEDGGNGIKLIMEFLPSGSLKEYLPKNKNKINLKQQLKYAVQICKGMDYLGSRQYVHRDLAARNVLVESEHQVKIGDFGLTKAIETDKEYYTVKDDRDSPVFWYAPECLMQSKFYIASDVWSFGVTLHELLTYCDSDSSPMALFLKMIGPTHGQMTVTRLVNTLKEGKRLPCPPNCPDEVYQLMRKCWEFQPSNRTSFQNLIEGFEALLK

[9] = target: JAK1 phosphorylation (pJAK1; Y1034/Y1035) (Homo sapiens, UniProt P23458, C817A); assay: JAK1 phosphorylation western blot in 22Rv1 cells expressing JAK1 variants; format: cell-based; conditions: C817A-JAK1; 2 µM, 2 h
JAK1 phosphorylation (pJAK1; Y1034/Y1035), sequence (P23458 whole entry C817A): as the sequence (P23458 whole entry) above, with C817A counted along it

Question: With `CS(=O)(=O)N1CC[C@H](C#CC(=O)N2CCC[C@@H](c3ccc(Cl)c(Cl)c3)C2)C1` [VVD-118313] as the compound, how does the “effect on IFNα-dependent STAT1 phosphorylation” value [1] read?
Answer: inhibited

Question: What about the “production of IL-2” value [2] of the same compound?
Answer: slightly increased

Question: What about the “secretion of IFNγ” value [2] of the same compound?
Answer: partially blocked

Question: And the “effect on catalytic activity of recombinant purified JAK1” value ([3]; peptide substrate assay)?
Answer: did not inhibit

Question: What about the pIC50 ([3]; read-out: IC50, JAK1 substrate assay, 30 min preincubation, IRS-1 peptide, ATP 50 µM, 1 h) of the same compound?
Answer: < 4.30

Question: And the “engagement of mouse JAK1 C816 (% inhibition)” value (C816 of mouse JAK1)?
Answer: > 90%

Question: What about the “CD25+ (% of live cells)” value ([4]; 0.4 μM, representative flow cytometry plot) of the same compound?
Answer: 83%

Question: And the “T-cell activation (proportion of CD25+ T-cells)” value ([4]; αCD3/αCD28 co-stimulation)?
Answer: partially inhibited

Question: And the “early-stage activation marker CD69” value ([4]; αCD3/αCD28 co-stimulation)?
Answer: Neither compound affected

Question: And the “Engagement Ratio (DMSO/VVD-118313)” value (TYK2_C838; 0.01 µM)?
Answer: 0.9

Question: And the “%Engagement” value (TYK2_C838; 0.1 µM)?
Answer: 32%

Question: And the “Engagement Ratio (DMSO/VVD-118313)” value (TYK2_C838; 0.1 µM)?
Answer: 1.5

Question: What about the “%Engagement” value (TYK2_C838; 1 µM) of the same compound?
Answer: 83%

Question: What about the “Engagement Ratio (DMSO/VVD-118313)” value (TYK2_C838; 1 µM) of the same compound?
Answer: 5.9

Question: What about the “%Engagement” value (TYK2_C838; 10 µM) of the same compound?
Answer: 96%

Question: And the “Engagement Ratio (DMSO/VVD-118313)” value (TYK2_C838; 10 µM)?
Answer: 20.0

Question: What about the “inhibition of IFNα-STAT1 phosphorylation” value ([5]; C817A-JAK1-expressing 22Rv1 cells, up to 2 µM) of the same compound?
Answer: < 10%

Question: What about the “effect on IFNα-stimulated pSTAT1” value ([5]; WT- or C810A-JAK1-expressing 22Rv1 cells, 2 µM, 2 h) of the same compound?
Answer: blocked

Question: What about the “maximal inhibition of IFNα-STAT1 phosphorylation” value ([5]; WT- or C810A-JAK1-expressing 22Rv1 cells, at ~0.2 µM) of the same compound?
Answer: > 80%

Question: And the “inhibition of IL-6-stimulated STAT3 phosphorylation” value [6]?
Answer: > 85%

Question: What about the “Engagement Ratio (DMSO/VVD-118313)” value (SLC66A3_C135; 0.01 µM) of the same compound?
Answer: 1.0

Question: What about the “%Engagement” value (SLC66A3_C135; 0.1 µM) of the same compound?
Answer: 12%

Question: What about the “Engagement Ratio (DMSO/VVD-118313)” value (SLC66A3_C135; 0.1 µM) of the same compound?
Answer: 1.1

Question: And the “Engagement Ratio (DMSO/VVD-118313)” value (SLC66A3_C135; 1 µM)?
Answer: 4.4

Question: And the “%Engagement” value (SLC66A3_C135; 10 µM)?
Answer: 99%

Question: And the “Engagement Ratio (DMSO/VVD-118313)” value (SLC66A3_C135; 10 µM)?
Answer: 20.0

Question: What about the “competition of probe 6 reactivity with WT-TYK2” value [7] of the same compound?
Answer: blocked probe 6 reactivity

Question: And the “effect on trans-phosphorylation of inactive JAK1-HA variants” value [8]?
Answer: completely blocked

Question: What about the “effect on constitutive JAK1 phosphorylation” value [9] of the same compound?
Answer: did not affect
